Assay results reported in patent publication US20230167073A1 (Teijin Pharma Limited, priority 2020, published 2023).

What follows are compounds tested against T1, Human TRPC6 (Homo sapiens, UniProt Q9Y210) (assay: Evaluation of TRPC6 channel inhibitory activity (1), FLIPR Calcium 5 Assay Kit, OAG stimulation (Compound Nos. 1-1293)). Details: Human TRPC6 stably-expressing cells, OAG 30 μM, FLIPR Calcium 5 Assay Kit; read-out: Inhibitory activity (pIC50 class) (converted).
T1 construct: expressed in transfected cells
T1 sequence (Q9Y210 1-931): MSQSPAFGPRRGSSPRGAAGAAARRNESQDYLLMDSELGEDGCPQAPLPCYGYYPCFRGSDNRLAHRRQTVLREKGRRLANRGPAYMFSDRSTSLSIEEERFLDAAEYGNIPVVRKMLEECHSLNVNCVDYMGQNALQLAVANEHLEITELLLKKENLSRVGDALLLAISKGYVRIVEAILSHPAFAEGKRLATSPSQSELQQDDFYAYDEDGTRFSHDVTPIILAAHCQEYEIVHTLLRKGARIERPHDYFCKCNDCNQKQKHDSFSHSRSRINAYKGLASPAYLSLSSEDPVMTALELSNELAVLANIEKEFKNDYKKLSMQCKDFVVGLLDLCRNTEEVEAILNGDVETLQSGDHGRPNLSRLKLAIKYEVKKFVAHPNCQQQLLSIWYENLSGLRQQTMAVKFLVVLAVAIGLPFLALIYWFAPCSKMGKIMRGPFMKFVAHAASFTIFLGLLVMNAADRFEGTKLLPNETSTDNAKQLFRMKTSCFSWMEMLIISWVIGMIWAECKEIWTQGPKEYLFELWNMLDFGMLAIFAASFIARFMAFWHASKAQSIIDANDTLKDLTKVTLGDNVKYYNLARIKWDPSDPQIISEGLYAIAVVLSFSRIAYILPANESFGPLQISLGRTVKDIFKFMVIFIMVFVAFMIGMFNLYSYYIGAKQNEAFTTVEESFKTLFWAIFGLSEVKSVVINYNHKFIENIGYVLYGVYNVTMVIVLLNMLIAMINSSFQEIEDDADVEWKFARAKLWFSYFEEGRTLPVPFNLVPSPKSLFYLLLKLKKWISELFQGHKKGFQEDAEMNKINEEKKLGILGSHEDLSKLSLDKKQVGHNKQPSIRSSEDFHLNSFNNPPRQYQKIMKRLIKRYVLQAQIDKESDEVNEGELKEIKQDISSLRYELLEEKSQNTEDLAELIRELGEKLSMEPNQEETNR
Assay type: cell-based
In short: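 Readout is pIC50 from four-parameter logistic fitting of inhibition of the OAG-evoked (30 μM final) fluorescence calcium signal. Human TRPC6 stable cells are dye-loaded with probenecid, and compound is applied 20 min ahead of agonist.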

Structure (SMILES)	IC50
COC(c1cnc(-c2ccccc2)s1)c1cc(C#N)ccc1-c1ccc(CCN)cc1 (centres unmarked) [compound 1230, 4-[4-(2-aminoethyl)phenyl]-3-[methoxy-(2-phenyl-1,3-thiazol-5-yl)methyl]benzonitrile]	> 1000 nM
COC(c1cc(-c2ccccc2)no1)c1cc(C#N)ccc1-c1ccc(CCN)cc1 (centres unmarked) [compound 1231, 4-[4-(2-aminoethyl)phenyl]-3-[methoxy-(3-phenyl-1,2-oxazol-5-yl)methyl]benzonitrile]	10 to 1000 nM
Cn1nc(C(C)(C)C)cc1C(O)c1cc(C#N)ccc1-c1ccc(CN)cn1 (centres unmarked) [compound 1233, 4-[5-(aminomethyl)pyridin-2-yl]-3-[(5-tert-butyl-2-methylpyrazol-3-yl)-hydroxymethyl]benzonitrile]	< 10 nM
Cn1nc(C(C)(C)C)cc1C(O)c1cc(C#N)ccc1-c1ncc(CN)cn1 (centres unmarked) [compound 1234, 4-[5-(aminomethyl)pyrimidin-2-yl]-3-[(5-tert-butyl-2-methylpyrazol-3-yl)-hydroxymethyl]benzonitrile]	< 10 nM
Cn1nc(C(C)(C)C)cc1C(O)c1cc(C#N)ccc1-c1ncc(CCN)cn1 (centres unmarked) [compound 1235, 4-[5-(2-aminoethyl)pyrimidin-2-yl]-3-[(5-tert-butyl-2-methylpyrazol-3-yl)-hydroxymethyl]benzonitrile]	10 to 1000 nM
COC(c1cc(C#N)ccc1-c1ncc(CCN)cn1)c1cc(C(C)(C)C)nn1C (centres unmarked) [compound 1236, 4-[5-(2-aminoethyl)pyrimidin-2-yl]-3-[(5-tert-butyl-2-methylpyrazol-3-yl)-methoxymethyl]benzonitrile]	10 to 1000 nM
N#Cc1ccc(-c2ccc(C(O)CN)cc2)c(Sc2cnnc(N3CCOCC3)c2)c1 (centres unmarked) [compound 1238, 4-[4-(2-amino-1-hydroxyethyl)phenyl]-3-(6-morpholin-4-ylpyridazin-4-yl)sulfanylbenzonitrile]	> 1000 nM
N#Cc1ccc(-c2ccc(CCN)cc2)c(Sc2cnnc(N3CCOCC3)c2)c1 [compound 1239, 4-[4-(2-aminoethyl)phenyl]-3-(6-morpholin-4-ylpyridazin-4-yl)sulfanylbenzonitrile]	< 10 nM
N#Cc1ccc(-c2ccc(CCN)cc2)c(Sc2cnnc(N3CCCC3)c2)c1 [compound 1241, 4-[4-(2-aminoethyl)phenyl]-3-(6-pyrrolidin-1-ylpyridazin-4-yl)sulfanylbenzonitrile]	< 10 nM
N#Cc1ccc(-c2ccc(CCN)cn2)c(Sc2cnnc(N3CCOCC3)c2)c1 [compound 1242, 4-[5-(2-aminoethyl)pyridin-2-yl]-3-(6-morpholin-4-ylpyridazin-4-yl)sulfanylbenzonitrile]	10 to 1000 nM
N#Cc1ccc(-c2ccc(CCN)cn2)c(Sc2cnnc(N3CCCCC3)c2)c1 [compound 1243, 4-[5-(2-aminoethyl)pyridin-2-yl]-3-(6-piperidin-1-ylpyridazin-4-yl)sulfanylbenzonitrile]	< 10 nM
N#Cc1ccc(-c2ccc(CCN)cn2)c(Sc2cnnc(N3CCCC3)c2)c1 [compound 1244, 4-[5-(2-aminoethyl)pyridin-2-yl]-3-(6-pyrrolidin-1-ylpyridazin-4-yl)sulfanylbenzonitrile]	< 10 nM
N#Cc1ccc(-n2cc(CCN)cn2)c(Sc2cnnc(N3CCOCC3)c2)c1 [compound 1245, 4-[4-(2-aminoethyl)pyrazol-1-yl]-3-(6-morpholin-4-ylpyridazin-4-yl)sulfanylbenzonitrile]	10 to 1000 nM
N#Cc1ccc(-n2cc(CCN)cn2)c(Sc2cnnc(N3CCCC3)c2)c1 [compound 1247, 4-[4-(2-aminoethyl)pyrazol-1-yl]-3-(6-pyrrolidin-1-ylpyridazin-4-yl)sulfanylbenzonitrile]	10 to 1000 nM
Cc1nc(Sc2cc(C#N)ccc2-c2ccc(CCN)cn2)cc(N2CCOCC2)n1 [compound 1248, 4-[5-(2-aminoethyl)pyridin-2-yl]-3-(2-methyl-6-morpholin-4-ylpyrimidin-4-yl)sulfanylbenzonitrile]	10 to 1000 nM
Cc1nc(Sc2cc(C#N)ccc2-c2ccc(CCN)cn2)cc(N2CCCCC2)n1 [compound 1249, 4-[5-(2-aminoethyl)pyridin-2-yl]-3-(2-methyl-6-piperidin-1-ylpyrimidin-4-yl)sulfanylbenzonitrile]	< 10 nM

Structure (SMILES)	IC50
Cc1nc(Sc2cc(C#N)ccc2-c2ccc(CCN)cn2)cc(N2CCCC2)n1 [compound 1250, 4-[5-(2-aminoethyl)pyridin-2-yl]-3-(2-methyl-6-pyrrolidin-1-ylpyrimidin-4-yl)sulfanylbenzonitrile]	10 to 1000 nM
Cc1nc(Sc2cc(C#N)ccc2-n2cc(CCN)cn2)cc(N2CCOCC2)n1 [compound 1251, 4-[4-(2-aminoethyl)pyrazol-1-yl]-3-(2-methyl-6-morpholin-4-ylpyrimidin-4-yl)sulfanylbenzonitrile]	10 to 1000 nM
Cc1nc(Sc2cc(C#N)ccc2-n2cc(CCN)cn2)cc(N2CCCCC2)n1 [compound 1252, 4-[4-(2-aminoethyl)pyrazol-1-yl]-3-(2-methyl-6-piperidin-1-ylpyrimidin-4-yl)sulfanylbenzonitrile]	10 to 1000 nM
Cc1nc(Sc2cc(C#N)ccc2-n2cc(CCN)cn2)cc(N2CCCC2)n1 [compound 1253, 4-[4-(2-aminoethyl)pyrazol-1-yl]-3-(2-methyl-6-pyrrolidin-1-ylpyrimidin-4-yl)sulfanylbenzonitrile]	10 to 1000 nM
Cc1nc(Sc2cc(C#N)ccc2-c2ncc(CCN)cn2)cc(N2CCOCC2)n1 [compound 1254, 4-[5-(2-aminoethyl)pyrimidin-2-yl]-3-(2-methyl-6-morpholin-4-ylpyrimidin-4-yl)sulfanylbenzonitrile]	10 to 1000 nM
Cc1nc(Sc2cc(C#N)ccc2-c2ncc(CCN)cn2)cc(N2CCCCC2)n1 [compound 1255, 4-[5-(2-aminoethyl)pyrimidin-2-yl]-3-(2-methyl-6-piperidin-1-ylpyrimidin-4-yl)sulfanylbenzonitrile]	< 10 nM
Cc1nc(Sc2cc(C#N)ccc2-c2ncc(CCN)cn2)cc(N2CCCC2)n1 [compound 1256, 4-[5-(2-aminoethyl)pyrimidin-2-yl]-3-(2-methyl-6-pyrrolidin-1-ylpyrimidin-4-yl)sulfanylbenzonitrile]	10 to 1000 nM
N#Cc1ccc(-c2ncc(CCN)cn2)c(Sc2cnnc(N3CCOCC3)c2)c1 [compound 1257, 4-[5-(2-aminoethyl)pyrimidin-2-yl]-3-(6-morpholin-4-ylpyridazin-4-yl)sulfanylbenzonitrile]	10 to 1000 nM
N#Cc1ccc(-c2ncc(CCN)cn2)c(Sc2cnnc(N3CCCCC3)c2)c1 [compound 1258, 4-[5-(2-aminoethyl)pyrimidin-2-yl]-3-(6-piperidin-1-ylpyridazin-4-yl)sulfanylbenzonitrile]	< 10 nM
N#Cc1ccc(-c2ncc(CCN)cn2)c(Sc2cnnc(N3CCCC3)c2)c1 [compound 1259, 4-[5-(2-aminoethyl)pyrimidin-2-yl]-3-(6-pyrrolidin-1-ylpyridazin-4-yl)sulfanylbenzonitrile]	< 10 nM
Cc1cc(Sc2cc(C#N)ccc2-c2ncc(CCN)cn2)cc(N2CCOCC2)n1 [compound 1260, 4-[5-(2-aminoethyl)pyrimidin-2-yl]-3-(2-methyl-6-morpholin-4-ylpyridin-4-yl)sulfanylbenzonitrile]	10 to 1000 nM
Cc1cc(Sc2cc(C#N)ccc2-c2ncc(CN)cn2)cc(N2CCOCC2)n1 [compound 1261, 4-[5-(aminomethyl)pyrimidin-2-yl]-3-(2-methyl-6-morpholin-4-ylpyridin-4-yl)sulfanylbenzonitrile]	> 1000 nM
Cc1nc(Sc2cc(C#N)ccc2-c2ncc(CN)cn2)cc(N2CCCC2)n1 [compound 1262, 4-[5-(aminomethyl)pyrimidin-2-yl]-3-(2-methyl-6-pyrrolidin-1-ylpyrimidin-4-yl)sulfanylbenzonitrile]	> 1000 nM
Cc1nc(Sc2cc(C#N)ccc2-c2ncc(CN)cn2)cc(N(C)C)n1 [compound 1263, 4-[5-(aminomethyl)pyrimidin-2-yl]-3-[6-(dimethylamino)-2-methylpyrimidin-4-yl]sulfanylbenzonitrile]	> 1000 nM
N#Cc1ccc(-c2ccc(CN)cn2)c(Sc2cnnc(N3CCCC3)c2)c1 [compound 1264, 4-[5-(aminomethyl)pyridin-2-yl]-3-(6-pyrrolidin-1-ylpyridazin-4-yl)sulfanylbenzonitrile]	10 to 1000 nM
N#Cc1ccc(-c2ncc(CN)cn2)c(Sc2cnnc(N3CCCC3)c2)c1 [compound 1265, 4-[5-(aminomethyl)pyrimidin-2-yl]-3-(6-pyrrolidin-1-ylpyridazin-4-yl)sulfanylbenzonitrile]	10 to 1000 nM
